This is an account of results in ChEMBL document CHEMBL1127898, “The role of oxygen in the photoinduced antiviral activity of hypericin” (1994).

Each structure is given as a SMILES string.

Holding throughout (type): functional
The test system of assay [1] is Equine infectious anemia virus. In words: Antiviral activity against equine infectious anemia virus (EIAV) in hypoxic condition obtained by passing argon gas, after 0 min of illumination, using focal immunoassay.
Assay [2] concerns Equine infectious anemia virus. The experiment in a line: Antiviral activity against equine infectious anemia virus (EIAV) in deoxygenation condition effected by using beta-carotene at a concentration of 0 uM.
Assay [3] has as its system Equine infectious anemia virus. In words: Antiviral activity against equine infectious anemia virus (EIAV) in oxygenated condition after 10 min of illumination, using focal immunoassay.
The test system of assay [4] is Equine infectious anemia virus. In words: Antiviral activity against equine infectious anemia virus (EIAV) in deoxygenation condition effected by using beta-carotene at a concentration of 80 uM.
The subject of assay [5] is Equine infectious anemia virus. In words: Antiviral activity against equine infectious anemia virus (EIAV) in hypoxic condition obtained by passing argon gas, after 10 min of illumination, using focal immunoassay.
Assay [6] relates to Equine infectious anemia virus. The experiment in a line: Antiviral activity against equine infectious anemia virus (EIAV) in hypoxic condition obtained by passing nitrogen gas, after 0 min of illumination using focal, immunoassay.
In assay [7] the test system is Equine infectious anemia virus. In words: Antiviral activity against equine infectious anemia virus (EIAV) in deoxygenation condition effected by using beta-carotene at a concentration of 32 uM.
Assay [8] concerns Equine infectious anemia virus. In words: Antiviral activity against equine infectious anemia virus (EIAV) in hypoxic condition obtained by passing nitrogen gas, after 10 min of illumination using focal, immunoassay.
Assay [9] has as its system Equine infectious anemia virus. The experiment in a line: Antiviral activity against equine infectious anemia virus (EIAV) in deoxygenation condition effected by using beta-carotene at a concentration of 64 uM.

As to `Cc1cc(O)c2c(=O)c3c(O)cc(O)c4c5c(O)cc(O)c6c(=O)c7c(O)cc(C)c8c1c2c(c34)c(c78)c65` [HYPERICIN], the Infectious virus in [1] stood at 5975 ffu ml-1; in assay [2], 0 ffu ml-1; in assay [3], 0 ffu ml-1; in [4], 0 ffu ml-1; in assay [5] it was 225 ffu ml-1; in assay [6], 14500 ffu ml-1. Further, the Infectious virus in assay [7] was determined as 0 ffu ml-1; in assay [8], 25 ffu ml-1; in assay [9], 0 ffu ml-1.
